Series [1] is described as follows: Viscosity Test Method (cone and plate viscometer/rheometer). It is filed as physicochemical. To be noted: Sepigel 1.89%. The source says:
The hair care composition may have a viscosity of from about 2,000 cps to about 20,000 cps, alternatively from about 10,000 cps to about 15,000 cps. The viscosity of the hair care composition may be determined by a cone and plate viscometer/rheometer which measures the viscous drag resulting from the sample material contained in the gap between a rotating cone and a stationary plate. The geometry of the cone and plate may be such that the entire sample is subjected to a uniform shear rate. A Brookfield Rheometer RS, with Cone C75-1, 26.7° C. temperature, 2.5 mL sample size, at 2 res/sec for 3 minutes may be used.

The nature of series [2]: Measurement of Average Thickness Increase of single hair fibers. To be noted: Sepigel 1.89%, Example 1 formula, fibers treated 10 minutes, dried overnight. The procedure:
Measurement of Average Thickness Increase
• 1) Asian or Caucasian hair fibers (low-lift general population) are soaked in deionized water for 10 minutes, and allowed to equilibrate overnight in at Controlled Temperature and Humidity room (20 C, 50 RH). • 2) The single hair fibers are imaged with microscope and the diameter is measured using software for baseline measurement. • 3) The hair fibers are then treated with the hair care composition for 10 minutes to allow for saturation. The fibers are then removed and allowed to equilibrate and dry overnight. • 4) The next day, the fibers are imaged and measured for a final reading. For each experiment, untreated control and product treatment controls are ran, and at least 5 fibers are measured per treatment. • 5) In order to measure increase in thickness as a function of treatment, the […]. The average thickness increase is reported in the Table above, with measurements reported in micrometers. Viscosity Test Method

Molecules are shown by their SMILES.

On to `Oc1cccc(O)c1` [Resorcinol, 1,3-Dihydroxybenzene], for which the Viscosity came out at 14767 cps in series [1] (composition with Resorcinol 0.5%); 12115 cps in series [1] (composition with Resorcinol 1%); 13812 cps in series [1] (composition with Resorcinol 2%); 12047 cps in series [1] (composition with Resorcinol 5%); 10308 cps in series [1] (composition with Resorcinol 8%). For the same molecule, the “Average Thickness Increase” value came to 4.2 μm in series [2] (Resorcinol 0.5%); 3.9 μm in series [2] (Resorcinol 1%); 13.5 μm in series [2] (Resorcinol 2%); 10.7 μm in series [2] (Resorcinol 5%); 10.3 μm in series [2] (Resorcinol 8%).

(Values after patent publication US9610233B2, “Hair thickening compositions and methods of use” (The Procter & Gamble Company, priority 2013, dated 2017).)
